In patent US20170296629A1, “INHIBITOR OF EXTRACELLULAR TRAP FORMATION IN LEUKOCYTE” (KEIO UNIVERSITY, priority 2014, published 2017):
Ends that are not written are not given here.

System: Healthy Individual's Peripheral Blood Neutrophil
Assay: Inhibition of NET formation in neutrophils pretreated with lactoferrin-derived peptide fragment; DNA concentration in culture supernatant (Picogreen)
Assay type: cell-based
Conditions: human neutrophils, pretreatment with peptide
Method: Effect of Inhibiting NET Formation Stimulation of Healthy Individual's Peripheral Blood Neutrophil by Pretreatment with Lactoferrin-derived Peptide Fragment
For each round of experiment, 15 ml to 20 ml of peripheral blood was collected from a healthy individual by using an EDTA-containing syringe (with a needle of 18 to 22 G). After collecting the blood, in a 15 ml conical tube charged with 3 ml of Mono-Poly Resolving Medium (Cat No. DSBN100, DS Pharma Biochemical Co., Ltd.), 3.5 ml of the whole blood was gently layered over a lower layer of Mono-Poly Resolving Medium. The resultant 15 ml conical tube was centrifuged with a swing centrifuge at room temperature (15 to 30° C.) at 400×g for 20 minutes, and the conical tube was then gently taken out. An uppermost brown plasma layer and a lymphocyte/monocyte layer thereunder were removed with an aspirator or the like. In addition, a transparent layer under the lymphocyte/monocyte layer was removed as much as possible. A pale pink layer under the transparent layer was taken out with a Pasteur pipette, and transferred, for washing neutrophils, to a test tube charged with phosphate buffered saline (PBS(−); 137 mM of sodium chloride, 2.7 mM of potassium chloride, 8.1 mM of disodium hydrogen phosphate dodecahydrate, and 1.47 mM of potassium dihydrogen phosphate). The test tube thus holding the neutrophils was centrifuged at room temperature (15 to 30° C.) at 200×g for 10 minutes. The test tube was taken out, and a supernatant was discarded. To the neutrophils held in the test tube, sterile water at 4° C. was added, and the resultant was allowed to stand still on ice for 30 seconds for hemolyzing erythrocytes mixed therein. After the hemolysis, 45 ml of PBS(−) was added thereto, and the resultant was centrifuged at 200×g for 10 minutes. […]
A culture supernatant was collected, centrifuged at 200×g for 10 minutes, and the thus obtained supernatant was transferred to a fresh microcentrifuge tube. The amount of DNA was measured by using Picogreen dsDNA assay reagent (P11496 Invitrogen) in accordance with the accompanying protocol.

| Substance | inhibition of the NET formation, dependence on amount (FIG. 3) | inhibition of the NET (FIG. 2) (FIG. 2) |
| --- | --- | --- |
| SEQ ID NO: 7: Human lactoferricin, basic peptide prepared by PH Japan (GRRRRSVQWCAVSQPEATKCFQWQRNMRKVRGPPVSCIKRDSPIQCIQA; listed as Homo sapiens) | inhibited the NET formation in a volume-dependent manner |  |
| SEQ ID NO: 6: Bovine lactoferricin; basic peptide obtained by pepsin hydrolysis of bovine lactoferrin, also prepared by PH Japan (MFKCRRWQWRMKKLGAPSITCVRRAF; ends and bridges not checked; cysteine pairing not given here; listed as Bos taurus) | inhibited the NET formation in a volume-dependent manner | found to have the inhibiting effect |
